Measured values: PubChem BioAssay AID179 (DTP/NCI, 2004)
Where “and” joins values, the source holds several entries; their conditions need not be identical. Equal values may be shown once. Calls of active or inactive are those of the source.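 The calls were made as follows: active = compounds giving half or more protection of infected cells from virus-caused growth loss, again on retest; inactive = the rest.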

Test system: CEM cells HIV-1 protection, formazan growth assay
Assay: NCI AIDS Antiviral Assay
Settings: for IC50: measured here: growth of uninfected CEM cells
In short: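 Five concentrations of each compound were applied to infected and uninfected human CEM cells. Protection from HIV-1 was judged from growth measured with a soluble formazan assay.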

SMILES | EC50 | IC50 | outcome
CC1CN1SSN1CC1C (centres undefined) | > 200 µM | 182 µM | –
CCCCCCN(N)C(=O)CC#N | > 39.8 µM | > 39.8 µM | –
CCCCCCCCCCCC(=O)OC[C@@H](C[As](=O)(O)O)OC(=O)CCCCCCCCCCC | > 200 µM | 3.89 µM | –
O=[N+]([O-])c1ncn(S(=O)(=O)c2cccc3cccnc23)n1 | > 200 µM | > 200 µM | –
COc1cc(OC)c2ssc3c(OC)cc(OC)c4ssc1c2-c43 | > 13.2 µM | > 13.2 µM | –
O=S(=O)(Nc1nc2ccccc2nc1N1CCCCCC1)c1ccccc1 | > 200 µM | 33.9 µM | –
NC1=Nc2cc(C(F)(F)F)ccc2Sc2nc3ccccc3n21 | > 200 µM | – | –
CC(=O)OC1SCC2OC(=O)OC21 (centres undefined) | > 1230 µM | > 1230 µM | –
COc1cc(C2c3cc4c(cc3OC3(O)COC(=O)C23)OCO4)cc(OC)c1OC (centres undefined) | > 200 µM | 105 µM | –
CCOC(=O)c1noc(Oc2ccc(Cl)cc2Cl)n1 | > 44.7 µM | 25.1 µM | –
O=C(CN1CCN(c2ccccn2)CC1)N1CCCn2c1nc1ccccc1c2=O | > 200 µM | > 200 µM | –
COC(=O)C(=O)C(C(=O)OC)C(=O)C(=O)Nc1ccccc1C(N)=O (centres undefined) | > 74.1 µM | > 74.1 µM | –
C1=CC2C=CC(C=C1)[PH+]2c1ccccc1.[C-]#[O+].[C-]#[O+].[C-]#[O+].[C-]#[O+].[C-]#[O+].[Cr] (centres undefined) | > 6.76 µM | > 6.76 µM | –
CC1(C)C2CCC1(C)C(NC(=O)CCN1CCOCC1)C2 (centres undefined) | > 851 µM | 537 µM | –
C=CC(OCC)(OCC)OCC | > 1450 µM | > 1450 µM | –
Cc1ccc2cc(NC(=O)CN)c3ccc(C)nc3c2n1.Cc1ccc2cc(NC(=O)CN)c3ccc(C)nc3c2n1.O=C1OC(C(O)C[O-])C(O)=C1O.[Cu+] | > 12.6 µM | 0.562 µM | –
C1CSC2=C(S1)SC1=C(S2)SC(=C2SC3=C(SC4=C(SCCS4)S3)S2)S1 | > 200 µM | > 200 µM | –
CC(C)n1nnnc1-c1ccccc1 | > 200 µM | > 200 µM | –
Cc1cnc(NCCCN(C)C)c2c1[nH]c1ccc3ccccc3c12 | > 2 µM | 0.316 µM | –
CC1C(=O)C(C)C(c2cccs2)N(N=O)C1c1cccs1 (centres undefined) | > 58.9 µM | 37.2 µM | –
Nc1ccc(-c2cc(C(=O)Nc3nccs3)[nH]c(=S)n2)cc1 | > 759 µM | 407 µM | –
O=c1onc2c3ccccc3ncn12 | > 200 µM | > 200 µM | –

SMILES | EC50 | IC50 | outcome
CN1c2ccccc2N(C)C23N(C)c4ccccc4N(C)C12N(C)c1ccccc1N3C (centres undefined) | > 43.7 µM | > 43.7 µM | –
C1C[S+]2CC[S+]1CC2 | > 200 µM | > 200 µM | –
C1=Cc2ccccc2/C1=C/c1cc2c3c(c1)CCCN3CCC2 | > 43.7 µM | > 43.7 µM | –
CC1(C)CCC(C)(C)c2cc(C(=O)Nc3ccc(C(=O)O)cc3)ccc21 | – | 115 µM | inactive
O=c1c2cc([N+](=O)[O-])cnc2sn1-c1ccc([N+](=O)[O-])cc1 | > 200 µM | 63.1 µM | –
c1ccc2c(c1)Sc1ccccc1C2=C1c2ccccc2Sc2ccccc21 | > 200 µM | 10.7 µM | –
c1ccc(C[N+]23CCC(CC2)C3c2ccccc2)cc1 (centres undefined) | > 832 µM | 148 µM | –
COc1ccc(-c2[nH]c(=O)n(C3OC(CO)C(O)C(O)C3O)c(=O)c2C#N)cc1 (centres undefined) | > 200 µM and 186 µM | > 200 µM | –
N#Cc1nc2ccccc2nc1N1CCN(c2ccc([N+](=O)[O-])cc2)CC1 | > 200 µM | > 200 µM | –
O=C1OC(=O)C2C1C(c1ccc([N+](=O)[O-])cc1)N1C3C(=O)OC(=O)C3C(c3ccc([N+](=O)[O-])cc3)N21 (centres undefined) | > 27.5 µM | > 27.5 µM | –
CC(CC(=O)O)CC(=O)OC[C@]12CC[C@@H](C(C)C)[C@@H]1[C@H]1CC[C@@H]3[C@@]4(C)CC[C@H](OC(=O)CC(C)CC(=O)O)C(C)(C)[C@@H]4CC[C@@]3(C)[C@]1(C)CC2 (some centres undefined) | > 200 µM | 16.6 µM | –
C=C1CCc2ccccc2C1=O | > 200 µM | 31.6 µM | –
CN1CN(C)N(C(=O)c2ccccc2)CN1C(=O)c1ccccc1 | > 200 µM | 97.7 µM | –
N#C/C(C(=O)Nc1ccc(Cl)cc1)=C(/N)N1CCCCC1 | > 200 µM | > 200 µM | –
CN(C)c1ccc(-c2cc(C(=O)O)c3c(ccc4ccccc43)n2)cc1 | > 20.9 µM | > 20.9 µM | –
C=CCOc1ccc(C2C(C(=O)OCC)C(=O)CC(C)(O)C2C(=O)OCC)cc1OC (centres undefined) | > 200 µM | > 200 µM | –
CC1(C(=O)Nc2ccc3cc4ccccc4cc3c2)CC2(C)CC(C)(C1)C(O)NC2=O (centres undefined) | – | – | inactive
CCOC(=O)c1c2ccccc2n2c(=O)n(C)nnc12 | > 200 µM | > 200 µM | –
CC(=O)O[C@H]1CC[C@H]2[C@@H]3CCC4C(C)=NNC(=O)C4[C@H]3CC[C@]12C (some centres undefined) | > 200 µM | > 200 µM | –
CC1=NS(=O)(=O)c2cc(Cl)ccc2N1 | > 562 µM | > 407 µM and 537 µM | –
COc1ccc2c(c1)C1Oc3ccccc3CC1CO2 (centres undefined) | > 200 µM | 52.5 µM | –
